Calls of active or inactive are those of the source.
Tests used:
[1] = target: Tumor necrosis factor (Homo sapiens, UniProt P01375); experiment: TNFa-triggered NF-kB activation inhibitors, SAR follow-up, cell-based, revised (AID 2337); assay type: functional
[2] = target: T1, Heat shock factor protein 1 (Mus musculus, UniProt P38532); experiment: inhibition of MG132-induced HSE-luciferase signal, confirmation, cell-based, NIH3T3, luminescence, dose retest (AID 2382); assay type: functional;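 also: NIH3T3 fibroblasts with HSF1-driven luciferase reporter stressed by proteasome inhibitor MG132; luminescence from HSF1-driven luciferase expression after 8 hours of MG132 stress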
T1 sequence (P38532 whole entry): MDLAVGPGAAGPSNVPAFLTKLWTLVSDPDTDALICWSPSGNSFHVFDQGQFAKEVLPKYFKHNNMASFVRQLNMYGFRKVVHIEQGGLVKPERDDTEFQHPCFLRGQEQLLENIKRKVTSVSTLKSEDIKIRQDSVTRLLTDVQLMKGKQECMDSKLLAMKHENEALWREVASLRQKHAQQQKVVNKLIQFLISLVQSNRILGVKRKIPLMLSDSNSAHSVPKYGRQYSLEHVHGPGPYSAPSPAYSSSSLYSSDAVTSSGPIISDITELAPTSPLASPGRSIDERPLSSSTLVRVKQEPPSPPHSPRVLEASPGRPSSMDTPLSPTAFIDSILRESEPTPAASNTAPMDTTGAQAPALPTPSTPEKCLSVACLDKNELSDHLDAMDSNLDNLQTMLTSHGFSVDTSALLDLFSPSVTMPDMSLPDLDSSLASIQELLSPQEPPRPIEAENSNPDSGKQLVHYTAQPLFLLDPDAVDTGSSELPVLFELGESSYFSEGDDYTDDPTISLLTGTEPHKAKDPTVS

[3] = target: T2, Nucleotide-binding oligomerization domain-containing protein 1 (Homo sapiens, UniProt Q9Y239); experiment: NOD1 signaling inhibitors, SAR follow-up, revised (AID 2333); assay type: functional
T2 sequence (Q9Y239 whole entry): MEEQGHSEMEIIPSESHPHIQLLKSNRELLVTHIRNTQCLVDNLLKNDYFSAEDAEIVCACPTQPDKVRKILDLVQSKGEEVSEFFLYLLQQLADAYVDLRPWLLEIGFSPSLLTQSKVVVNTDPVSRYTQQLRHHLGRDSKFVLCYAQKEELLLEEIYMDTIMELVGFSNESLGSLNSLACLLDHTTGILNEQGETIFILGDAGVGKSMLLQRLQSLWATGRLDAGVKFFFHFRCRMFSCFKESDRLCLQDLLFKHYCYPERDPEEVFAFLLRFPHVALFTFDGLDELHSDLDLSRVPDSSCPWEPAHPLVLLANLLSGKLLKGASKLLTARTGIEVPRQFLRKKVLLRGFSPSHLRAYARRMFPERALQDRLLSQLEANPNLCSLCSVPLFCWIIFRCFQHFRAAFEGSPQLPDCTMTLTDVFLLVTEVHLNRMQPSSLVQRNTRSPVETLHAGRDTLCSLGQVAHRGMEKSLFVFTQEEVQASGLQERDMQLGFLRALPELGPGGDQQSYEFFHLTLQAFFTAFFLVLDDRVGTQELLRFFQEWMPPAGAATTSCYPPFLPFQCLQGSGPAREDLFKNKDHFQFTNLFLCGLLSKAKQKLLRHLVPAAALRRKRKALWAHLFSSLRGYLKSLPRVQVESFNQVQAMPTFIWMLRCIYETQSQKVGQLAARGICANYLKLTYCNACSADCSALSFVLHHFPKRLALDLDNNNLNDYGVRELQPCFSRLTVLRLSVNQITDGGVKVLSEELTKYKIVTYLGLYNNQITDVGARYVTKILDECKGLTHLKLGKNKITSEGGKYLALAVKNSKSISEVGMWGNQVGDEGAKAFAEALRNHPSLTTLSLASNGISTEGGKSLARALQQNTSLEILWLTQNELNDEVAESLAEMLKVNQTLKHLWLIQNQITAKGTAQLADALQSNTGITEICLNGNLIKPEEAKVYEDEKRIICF

[4] = target: Cyclin-dependent kinase 5/CDK5 activator 1 (Homo sapiens, UniProt Q00535); experiment: CDK5/p35 kinase inhibitors, dose response, biochemical, cherry-picked samples, set 2 (AID 504545)
Chain of Cyclin-dependent kinase 5/CDK5 activator 1 (Q00535 whole entry): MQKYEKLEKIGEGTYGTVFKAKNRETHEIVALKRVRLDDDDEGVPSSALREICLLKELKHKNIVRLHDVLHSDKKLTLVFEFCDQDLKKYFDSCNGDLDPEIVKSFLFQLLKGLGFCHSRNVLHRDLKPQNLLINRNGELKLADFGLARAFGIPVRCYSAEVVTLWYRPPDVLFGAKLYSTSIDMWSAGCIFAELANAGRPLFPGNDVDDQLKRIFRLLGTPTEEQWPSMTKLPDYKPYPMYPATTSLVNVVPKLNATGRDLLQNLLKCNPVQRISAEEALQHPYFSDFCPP
Chain of Cyclin-dependent kinase 5/CDK5 activator 1 (Q15078 whole entry, further chain): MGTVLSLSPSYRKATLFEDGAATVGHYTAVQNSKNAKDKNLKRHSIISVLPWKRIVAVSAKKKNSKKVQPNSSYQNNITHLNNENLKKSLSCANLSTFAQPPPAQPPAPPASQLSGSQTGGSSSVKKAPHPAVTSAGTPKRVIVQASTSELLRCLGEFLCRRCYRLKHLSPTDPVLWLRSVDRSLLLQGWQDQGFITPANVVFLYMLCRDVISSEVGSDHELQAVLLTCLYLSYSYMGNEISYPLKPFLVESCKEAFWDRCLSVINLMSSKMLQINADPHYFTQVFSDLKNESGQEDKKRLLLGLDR

[5] = target: Acyl-homoserine lactone acylase PvdQ (Pseudomonas aeruginosa (strain LESB58), UniProt Q9I194); experiment: P. aeruginosa PvdQ acylase inhibitors, dose response, biochemical, fluorescence, plate reader and imaging, cherry-picks (AID 493231)
Chain of Acyl-homoserine lactone acylase PvdQ (Q9I194 24-193 limits assumed): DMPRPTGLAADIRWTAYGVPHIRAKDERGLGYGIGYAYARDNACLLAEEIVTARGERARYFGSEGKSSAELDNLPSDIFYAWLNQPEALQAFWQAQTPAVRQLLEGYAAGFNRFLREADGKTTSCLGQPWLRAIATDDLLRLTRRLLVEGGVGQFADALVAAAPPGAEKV
Chain of Acyl-homoserine lactone acylase PvdQ (Q9I194 217-762 limits assumed): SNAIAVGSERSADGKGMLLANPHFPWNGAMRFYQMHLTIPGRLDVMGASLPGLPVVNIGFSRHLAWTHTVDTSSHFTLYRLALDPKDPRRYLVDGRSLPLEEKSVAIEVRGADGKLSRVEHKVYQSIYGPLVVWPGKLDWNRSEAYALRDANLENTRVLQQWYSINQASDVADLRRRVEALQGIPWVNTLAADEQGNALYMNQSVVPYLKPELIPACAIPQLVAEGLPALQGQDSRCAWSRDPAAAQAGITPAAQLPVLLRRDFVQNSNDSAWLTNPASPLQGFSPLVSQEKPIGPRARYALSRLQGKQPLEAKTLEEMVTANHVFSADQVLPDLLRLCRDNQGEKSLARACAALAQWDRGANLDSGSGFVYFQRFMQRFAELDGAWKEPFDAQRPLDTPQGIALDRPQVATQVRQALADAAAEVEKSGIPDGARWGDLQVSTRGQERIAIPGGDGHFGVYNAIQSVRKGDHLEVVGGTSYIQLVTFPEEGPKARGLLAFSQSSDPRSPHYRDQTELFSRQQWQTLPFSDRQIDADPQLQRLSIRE

[6] = cytotoxicity toward DRD oncogenic fibroblasts, dose response, cell-based, non-viral oncogenic, luminescence (AID 1934); assay type: functional; details: Homo sapiens
[7] = Luminescence Cell-Based Dose Response HTS to Identify Inhibitors of 5'UTR Stem-Loop Driven Prion Protein mRNA Translation in H4 Neuroglioblastoma Cells. [Related pubchem assays: 1827 (Project Summary), 1813 (Primary HTS)]; assay type: functional
[8] = test system: BJ; experiment: cytotoxicity toward BJ-TERT fibroblasts, dose response, cell-based, RAS-independent, luminescence (AID 1933); assay type: functional; details: Homo sapiens
[9] = test system: BJ; experiment: cytotoxicity toward BJ-TERT-LT-ST fibroblasts, dose response, cell-based, RAS-independent, luminescence (AID 1935); assay type: functional; details: Homo sapiens;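 also: BJ fibroblasts immortalized with TERT plus LT and ST oncogenes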
[10] = HepG2 cell cytotoxicity, dose response, cytotoxicity control for Shn3 inhibitor project, CellTiter-Glo, cherry-picked (AID 624134); assay type: functional, cell-based
[11] = test system: Jurkat; experiment: antigen receptor-induced NF-kB inhibitors, dose response, Jurkat, luciferase reporter, luminescence, B- and T-cell (AID 489004); assay type: functional, cell-based; details: Homo sapiens;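 also: NF-kB luciferase reporter Jurkat cells stimulated with PMA plus ionomycin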
[12] = Shn3 3'UTR reporter inhibitors, dose response, cell-based, Clone20 osteoblasts, firefly luciferase, cherry-picked (AID 624132); assay type: functional;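 also: firefly luciferase luminescence from reporter carrying the Shn3 3'UTR in osteoblasts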
[13] = inhibitors of SNCA 5'UTR-driven reporter translation, confirmation, H4 neuroglioma cells, luminescence (AID 1988); assay type: functional, cell-based
[14] = inhibitors of SNCA 5'UTR-driven translation, confirmation, luminescence, H4 neuroglioblastoma cells, dose confirmation (AID 2454); assay type: functional, cell-based;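 also: H4 neuroglioblastoma cells carrying an alpha-synuclein 5'UTR luciferase reporter; potency for inhibition of the luciferase signal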
[15] = cytotoxicity in HEK-293T NF-kB-Luc cells, dose response, cytotoxicity control for B/T-cell NF-kB inhibitor project, cell-based, uHTS hits (AID 489019); assay type: functional;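 also: IC50 reflects cytotoxicity as loss of cell viability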
[16] = cells; assay type: functional, cell-based
[17] = Luminescence Cell-Based Dose Confirmation HTS to Identify Inhibitors of Platelet Dense Granule Release. [Related pubchem assays: 1663 (Primary HTS), 1678 (Summary of Project)]; assay type: functional
[18] = luciferase reporter signal reduction – luminescence, H4-C neuroglioblastoma cells, dose response (AID 2458); assay type: functional, cell-based;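 also: H4 neuroglioblastoma cells stably carrying a luciferase reporter gene fusion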
[19] = inhibitors of firefly luciferase expression or activity, dose response, H4 neuroglioma cells, luminescence (AID 1990); assay type: functional, cell-based
[20] = cells
[21] = target: T3, Oxysterols receptor LXR-beta (Homo sapiens, UniProt P55055); assay type: functional, cell-based;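 also: Cell-based luminescence dose-response assay of agonist activity at LXR, run as a confirmatory counterscreen to a daf-12 agonist screen; HEK293 cells with Gal4-LXR fusion and GAL4-driven luciferase reporter; agonist potency from rising luciferase signal of a Gal4-LXR reporter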
T3 sequence (P55055 whole entry): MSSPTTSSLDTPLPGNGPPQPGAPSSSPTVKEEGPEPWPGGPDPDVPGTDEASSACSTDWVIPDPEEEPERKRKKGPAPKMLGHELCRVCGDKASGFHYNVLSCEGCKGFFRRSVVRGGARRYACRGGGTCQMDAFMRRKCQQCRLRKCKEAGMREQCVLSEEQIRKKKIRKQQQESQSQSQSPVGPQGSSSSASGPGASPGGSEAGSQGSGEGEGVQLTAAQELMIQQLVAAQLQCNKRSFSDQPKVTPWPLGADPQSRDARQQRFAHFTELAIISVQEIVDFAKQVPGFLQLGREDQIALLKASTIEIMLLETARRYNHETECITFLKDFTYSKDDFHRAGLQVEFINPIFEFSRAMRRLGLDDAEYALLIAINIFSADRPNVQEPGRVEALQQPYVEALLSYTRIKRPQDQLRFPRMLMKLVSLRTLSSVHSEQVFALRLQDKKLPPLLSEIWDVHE

[22] = target: Luciferin 4-monooxygenase (Photinus pyralis, UniProt P08659); experiment: firefly luciferase enzyme inhibitors, dose response, biochemical, luminescence (AID 1891)
Chain of Luciferin 4-monooxygenase (P08659 whole entry): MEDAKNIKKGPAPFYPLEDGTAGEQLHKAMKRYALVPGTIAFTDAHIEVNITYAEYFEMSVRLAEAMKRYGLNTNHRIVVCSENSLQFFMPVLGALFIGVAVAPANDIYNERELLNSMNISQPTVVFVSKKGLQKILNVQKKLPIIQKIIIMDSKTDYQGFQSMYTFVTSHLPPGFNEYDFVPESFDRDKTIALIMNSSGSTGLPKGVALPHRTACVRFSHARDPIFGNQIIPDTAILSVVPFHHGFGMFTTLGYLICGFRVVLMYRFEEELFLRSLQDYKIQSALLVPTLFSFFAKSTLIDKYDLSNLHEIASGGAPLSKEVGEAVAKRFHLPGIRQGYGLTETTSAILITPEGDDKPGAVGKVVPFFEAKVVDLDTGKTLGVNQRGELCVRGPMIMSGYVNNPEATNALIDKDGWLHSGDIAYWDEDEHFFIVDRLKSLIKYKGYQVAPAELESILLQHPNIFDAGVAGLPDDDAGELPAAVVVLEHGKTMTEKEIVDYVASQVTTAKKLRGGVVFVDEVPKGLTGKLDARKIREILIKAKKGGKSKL

[23] = test system: BJ; experiment: cells; assay type: functional, cell-based; details: Homo sapiens
[24] = target: Paired box protein Pax-8 (Homo sapiens, UniProt Q06710); experiment: inhibitors of PAX8-driven TPO luciferase reporter, dose response, RMG-I cells, cherry-pick (AID 687027); assay type: functional, cell-based;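 also: luciferase reporter driven by Pax8 target thyroperoxidase promoter measured by SteadyGlo luminescence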
Chain of Paired box protein Pax-8 (Q06710 whole entry): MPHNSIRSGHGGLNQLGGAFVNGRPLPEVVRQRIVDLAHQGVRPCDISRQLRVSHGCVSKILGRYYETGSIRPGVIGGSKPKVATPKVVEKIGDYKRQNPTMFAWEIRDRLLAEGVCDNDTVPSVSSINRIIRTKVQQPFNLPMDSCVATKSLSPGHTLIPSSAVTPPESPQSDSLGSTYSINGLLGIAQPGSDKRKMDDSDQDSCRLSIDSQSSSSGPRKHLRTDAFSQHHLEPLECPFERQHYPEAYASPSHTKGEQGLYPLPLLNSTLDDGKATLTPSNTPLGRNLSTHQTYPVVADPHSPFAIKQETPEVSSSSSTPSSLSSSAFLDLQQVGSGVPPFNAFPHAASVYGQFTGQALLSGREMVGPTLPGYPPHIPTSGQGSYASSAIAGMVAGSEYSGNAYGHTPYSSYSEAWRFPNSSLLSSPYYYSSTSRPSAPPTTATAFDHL

[25] = non-specific cell cytotoxicity, dose response, cytotoxicity control for PAX8 inhibitor project, plate reader, dry powder samples (AID 743021); assay type: functional, cell-based
[26] = A cytotoxicity screen of small molecule inhibitors of the PhoP region in Salmonella typhi identified in the primary screen. [Related pubchem assays: 1850, 1864, 1985 ]; assay type: functional
[27] = M. tuberculosis H37Rv growth inhibitors, H37Rv strain (AID 1626); assay type: functional

Chain of Tumor necrosis factor (P01375 whole entry): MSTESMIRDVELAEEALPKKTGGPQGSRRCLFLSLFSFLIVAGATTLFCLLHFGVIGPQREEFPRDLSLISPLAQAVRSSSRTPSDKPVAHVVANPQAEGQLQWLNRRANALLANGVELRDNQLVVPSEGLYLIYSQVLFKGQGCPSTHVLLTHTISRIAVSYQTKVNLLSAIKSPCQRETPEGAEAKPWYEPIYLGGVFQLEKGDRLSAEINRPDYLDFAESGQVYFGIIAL

Cc1ccc(C(=O)ON=C(N)c2ccccn2)c(C)c1
active: IC50 [1] 70.6 nM | EC50 [2] < 160 nM | IC50 [3] 772 nM | AC50 [4] 11.8 µM

O=C1C2C(C(=O)N1Cc1ccco1)C1C=CC2C12CC2 (configuration not stated)
active: AC50 [5] 2.42 µM

O=C(Nc1ccc([N+](=O)[O-])cc1)C(=O)Nc1cccc(C(=O)O)c1
inactive: IC50 [15] > 80 µM | EC50 [20] > 67.5 µM | EC50 [21] > 67.5 µM
inconclusive: EC50 [9] > 75 µM | EC50 [16] > 12 µM
active: EC50 [6] 8.07 µM | EC50 [7] < 100 nM | EC50 [8] 16.2 µM | AC50 [10] 56.2 µM | IC50 [11] 1.57 µM | AC50 [12] 4.21 µM | EC50 [13] < 100 nM | EC50 [14] 115 nM | EC50 [17] 2.09 µM | EC50 [18] 126 nM | EC50 [19] < 100 nM | EC50 [22] 984 nM | EC50 [23] 7.23 µM | AC50 [24] 5 µM | AC50 [25] 5.98 µM

CC(C)Cc1c(O)nc(SCC(=O)Nc2ccc3c(c2)CCC3)nc1O
active: EC50 [26] > 50 µM | IC50 [27] > 100 µM

— ChEMBL document CHEMBL1201862, “PubChem BioAssay data set” (2004)
